# Structures can show the parent of a compound that is named as a salt. Where two headings read alike, the source gives them in different places.
# Experiments:
# [1] = exposure to humidity, cited from earlier work
# [2] = cited from earlier work
# [3] = for Related Substances: Chlorothiamine (Impurity C) / Related Substances: Thiamine sulfate ester (Impurity A) / Related Substances: Desmethylthiamine (Impurity B) / Related Substances: Total Impurities: EP 8.6 HPLC Method; for Related Substances: Chlorothiamine (Impurity C) / Related Substances: Thiamine sulfate ester (Impurity A): limit NMT 0.15%; for Related Substances: Desmethylthiamine (Impurity B): limit NMT 0.3%; for Related Substances: Total Impurities: limit NMT 0.5%; for Assay: limit 98.0%-102.0%; for Sulfates: limit EP 8.6 NMT 300 ppm; for Solution S: limit EP 8.6 Practically Clear and Odorless; for Heavy Metals / Appearance: limit Meets EP 8.6; for ID: Chloride / ID: FTIR / Limit of Nitrate: limit Meets USP 39; for Absorbance of Solution: limit USP 39 NMT 0.025 Abs; for Residue on Ignition: limit USP 39 NMT 0.2%; for Water: limit USP 39 NMT 5.0%; for pH: limit USP 39 pH 2.7-3.4
# [4] = 36 Months, listed as T111116, hydrochloride monohydrate
# [5] = 36 Months, listed as T111201, hydrochloride monohydrate
# [6] = 36 Months, listed as T111202, hydrochloride monohydrate
# [7] = Time 0, listed as T111116, hydrochloride monohydrate
# [8] = Time 0, listed as T111201, hydrochloride monohydrate
# [9] = Time 0, listed as T111202, hydrochloride monohydrate
smiles,measurement,setting,value
"Cc1ncc(C[n+]2csc(CCO)c2C)c(N)n1 [anhydrous form, Thiamine hydrochloride]",Hygroscopicity,[1]; hydrochloride,readily absorbs moisture to form the monohydrate and hemihydrate
Cc1ncc(C[n+]2csc(CCO)c2C)c(N)n1 [Thiamine hydrochloride],Solubility in water,[2],high solubility in water
"Cc1ncc(C[n+]2csc(CCO)c2C)c(N)n1 [Example 1, Thiamine Hydrochloride Hemihydrate]",Hygroscopicity,[1]; Hydrochloride Hemihydrate,less hygroscopic
Cc1ncc(C[n+]2csc(CCO)c2C)c(N)n1 [Thiamine hydrochloride monohydrate],Related Substances: Chlorothiamine (Impurity C),[3]; 36 Months,<0.05%
same,Related Substances: Thiamine sulfate ester (Impurity A),[3]; 36 Months,0.07%
same,Related Substances: Desmethylthiamine (Impurity B),[3]; [4],0.07%
same,Related Substances: Desmethylthiamine (Impurity B),[3]; [5],0.07%
same,Related Substances: Desmethylthiamine (Impurity B),[3]; [6],0.06%
same,Related Substances: Total Impurities,[3]; [4],0.13%
same,Related Substances: Total Impurities,[3]; [5],0.14%
same,Related Substances: Total Impurities,[3]; [6],0.13%
same,Assay,[3]; [4],99.8%
same,Assay,[3]; [5],99.6%
same,Assay,[3]; [6],99.1%
same,Sulfates,[3]; 36 Months,Complies
same,Solution S,[3]; 36 Months,Complies
same,Heavy Metals,[3]; 36 Months,Complies
same,Appearance,"[3]; 36 Months, sealed foil lined polypropylene bags",Complies
same,ID: Chloride,[3]; 36 Months,Complies
same,ID: FTIR,[3]; 36 Months,Complies
same,Limit of Nitrate,[3]; 36 Months,Complies
same,Absorbance of Solution,[3]; [4],0.004 Abs
same,Absorbance of Solution,[3]; [5],0.013 Abs
same,Absorbance of Solution,[3]; [6],0.007 Abs
same,Residue on Ignition,[3]; 36 Months,0.0%
same,Water,[3]; [4],3.7%
same,Water,[3]; [5],2.7%
same,Water,[3]; [6],4.0%
same,pH,[3]; [4],pH 2.9
same,pH,[3]; [5],pH 3.0
same,pH,[3]; [6],pH 3.1
same,Related Substances: Chlorothiamine (Impurity C),[3]; Time 0,<0.05%
same,Related Substances: Thiamine sulfate ester (Impurity A),[3]; [7],<0.05%
same,Related Substances: Thiamine sulfate ester (Impurity A),[3]; [8],0.07%
same,Related Substances: Thiamine sulfate ester (Impurity A),[3]; [9],0.06%
same,Related Substances: Desmethylthiamine (Impurity B),[3]; [7],<0.05%
same,Related Substances: Desmethylthiamine (Impurity B),[3]; [8],0.07%
same,Related Substances: Desmethylthiamine (Impurity B),[3]; [9],0.06%
same,Related Substances: Total Impurities,[3]; [7],Complies
same,Related Substances: Total Impurities,[3]; [8],0.4%
same,Related Substances: Total Impurities,[3]; [9],0.12%
same,Assay,[3]; [7],99.0%
same,Assay,[3]; [8],98.6%
same,Assay,[3]; [9],99.2%
same,Sulfates,[3]; Time 0,Complies
same,Solution S,[3]; Time 0,Complies
same,Appearance,[3]; Time 0,Complies
same,Heavy Metals,[3]; Time 0,Complies
same,ID: Chloride,[3]; Time 0,Complies
same,ID: FTIR,[3]; Time 0,Complies
same,Limit of Nitrate,[3]; Time 0,Complies
same,Absorbance of Solution,[3]; [7],0.005 Abs
same,Absorbance of Solution,[3]; [8],0.008 Abs
same,Absorbance of Solution,"[3]; Time 0, unit printed as %",0.007%
same,Residue on Ignition,[3]; Time 0,0.0%
same,Water,[3]; [7],3.2%
same,Water,[3]; [8],2.0%
same,Water,[3]; [9],3.3%
same,pH,[3]; [7],pH 3.3
same,pH,[3]; [8],pH 3.2
same,pH,[3]; [9],pH 3.2
same,Storage stability,"[3]; protected from moisture, […], USP or EP testing",stability up to three years
same,Hygroscopicity,[1]; hydrochloride monohydrate,hygroscopic
